Results from article PMC12037410, “Pharmacological targeting of BMAL1 modulates circadian and immune pathways” (Nature Chemical Biology, 2025).

Molecular target: BMAL1 (Homo sapiens, UniProt O00327)
Parameters: PASB domain (residues 338–449); Protein thermal shift (PTS) fragment screen on recombinant human BMAL1(PASB), shift of melting temperature
Details: dTmB; binder

Chain of BMAL1 (O00327 338-449): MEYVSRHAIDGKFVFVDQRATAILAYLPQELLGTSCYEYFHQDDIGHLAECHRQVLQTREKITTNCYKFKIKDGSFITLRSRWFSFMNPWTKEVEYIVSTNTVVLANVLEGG

Row | SMILES | Bmal1(PASB) dTmB
1 | Cn1ccccc1=O [Prestw-Frag-2410, Compound 227] | -0.12 °C
2 | COC(=O)C(O)c1ccccc1 (stereo not drawn) [Prestw-Frag-2423, Compound 176] | 0.02 °C
3 | CCN(CCCCO)C(C)Cc1ccc(OC)cc1 (stereo not drawn) [Prestw-Frag-2440, Compound 249] | -0.23 °C
4 | Nc1ccccn1 [Prestw-Frag-2443, Compound 228] | 0.09 °C
5 | COCCOC(=O)c1ccc(N)cc1 [Prestw-Frag-2453, Compound 317] | -0.58 °C
6 | O=C1CCc2ccccc2N1 [Prestw-Frag-2464, Compound 16] | -2.13 °C
7 | Nc1ccccc1S(N)(=O)=O [Prestw-Frag-2473, Compound 242] | 0.04 °C
8 | CCOc1ccccn1 [Prestw-Frag-2477, Compound 94] | -0.05 °C
9 | COC(=O)C(O)(c1ccccc1)C1CCCC1 (stereo not drawn) [Prestw-Frag-2484, Compound 442] | -1.34 °C
10 | CC(=O)N(CCC(=O)O)c1ccccc1 [Prestw-Frag-2487, Compound 222] | 0.04 °C
11 | c1ccc2cnccc2c1 [Prestw-Frag-2493, Compound 131] | -0.12 °C
12 | COc1ccc(O)cc1O [Prestw-Frag-2499, Compound 11] | 0.28 °C
13 | c1cnccn1 [Prestw-Frag-2501, Compound 209] | 0.00 °C
14 | CC(=O)c1ccc(O)cc1O [Prestw-Frag-2506, Compound 162] | 0.21 °C
15 | OCc1ccc(O)cc1 [Prestw-Frag-2532, Compound 453] | -0.16 °C
16 | c1ccc(C2CCNCC2)cc1 [Prestw-Frag-2537, Compound 310] | -0.53 °C
17 | S=c1[nH]c2ccccc2[nH]1 [Prestw-Frag-2539, Compound 1] | 6.28 °C
18 | O=C(O)c1cccnc1 [Prestw-Frag-2541, Compound 64] | -0.10 °C
19 | O=c1[nH]snc1N1CCOCC1 [Prestw-Frag-2562, Compound 37] | -0.14 °C
20 | ClC1(Cl)CC1c1ccccc1 (stereo not drawn) [Prestw-Frag-2566, Compound 328] | 0.06 °C
21 | O=C(O)CNC(=O)c1ccccc1 [Prestw-Frag-2576, Compound 196] | 0.18 °C
22 | O=C(O)COc1ccccc1 [Prestw-Frag-2577, Compound 147] | 0.25 °C

Row | SMILES | Bmal1(PASB) dTmB
23 | NC(=O)COc1ccccc1 [Prestw-Frag-2578, Compound 235] | -0.19 °C
24 | O=C(O)Cc1ccccc1 [Prestw-Frag-2579, Compound 132] | -0.05 °C
25 | NC(=O)Cc1ccccc1 [Prestw-Frag-2580, Compound 73] | -0.74 °C
26 | NC(=O)c1ccncc1 [Prestw-Frag-2587, Compound 181] | 0.25 °C
27 | Oc1cccc2cccnc12 [Prestw-Frag-2592, Compound 119] | -0.26 °C
28 | Clc1cccc2ncccc12 [Prestw-Frag-2593, Compound 66] | -0.75 °C
29 | OC1c2ccccc2CCc2ccccc21 [Prestw-Frag-2600, Compound 464] | -1.43 °C
30 | c1ccc(CCn2ccnc2)cc1 [Prestw-Frag-2608, Compound 366] | -0.49 °C
31 | c1ccc(Cn2ccnc2)cc1 [Prestw-Frag-2620, Compound 329] | -0.49 °C
32 | c1ccc(C(c2ccccc2)n2cncn2)cc1 [Prestw-Frag-2645, Compound 443] | -2.46 °C
33 | N#CC1(c2ccc(F)cc2)CCCCC1 [Prestw-Frag-2647, Compound 433] | -0.64 °C
34 | CC1(c2ccccc2)NC(=O)NC1=O (stereo not drawn) [Prestw-Frag-2652, Compound 273] | -0.17 °C
35 | Cc1ccc(C#N)c(=O)[nH]1 [Prestw-Frag-2669, Compound 177] | -0.34 °C
36 | O=C1CCCc2[nH]ccc21 [Prestw-Frag-2675, Compound 219] | 0.11 °C
37 | O=C(O)CCc1ncc(-c2ccccc2)o1 [Prestw-Frag-2693, Compound 126] | 0.10 °C
38 | Cc1nc(-c2ccccc2)c(-c2ccccc2)o1 [Prestw-Frag-2695, Compound 471] | -2.25 °C
39 | COc1ccc(C(C)=O)c(O)c1 [Prestw-Frag-2701, Compound 250] | 0.06 °C
40 | Oc1ccccc1C1CCCC1 [Prestw-Frag-2706, Compound 472] | -2.14 °C
41 | CN1C(=O)CCC1=O [Prestw-Frag-2713, Compound 293] | 0.17 °C
42 | NC(N)=NC(N)=Nc1ccc(Cl)cc1 [Prestw-Frag-2722, Compound 143] | -0.89 °C
43 | CCCOc1ccc(C(=O)OCC)cc1N [Prestw-Frag-2724, Compound 416] | -1.52 °C
44 | CS(=O)(=O)Nc1ccccc1 [Prestw-Frag-2755, Compound 281] | -0.10 °C

Row | SMILES | Bmal1(PASB) dTmB
45 | O=c1ccn([C@H]2C[C@H](O)[C@@H](CO)O2)c(=O)[nH]1 [Prestw-Frag-2769, Compound 275] | 0.09 °C
46 | CCN(CC)CCOC(=O)C1(c2ccccc2)CCCC1 [Prestw-Frag-2774, Compound 413] | -1.85 °C
47 | c1ccc2c3c([nH]c2c1)CCCC3 [Prestw-Frag-2780, Compound 46] | -0.19 °C
48 | CCNC(=O)c1cccnc1 [Prestw-Frag-2794, Compound 205] | 0.17 °C
49 | COC(=O)c1c[nH]c2ccccc12 [Prestw-Frag-2799, Compound 456] | -0.14 °C
50 | OC1CCN(c2ccccc2F)CC1 [Prestw-Frag-2803, Compound 151] | -0.09 °C
51 | Cc1ccccc1Nc1ncccc1C(=O)O [Prestw-Frag-2806, Compound 441] | 0.29 °C
52 | O=C(O)c1cccnc1Nc1cccc(Cl)c1 [Prestw-Frag-2807, Compound 229] | -0.34 °C
53 | NCCCOc1cccc(CN2CCCCC2)c1 [Prestw-Frag-2808, Compound 156] | -1.04 °C
54 | Oc1cccc(CN2CCCCC2)c1 [Prestw-Frag-2809, Compound 115] | -0.43 °C
55 | CCNC(=O)c1ccc(Cl)cc1 [Prestw-Frag-2818, Compound 347] | -0.36 °C
56 | Nc1cccc(O)c1 [Prestw-Frag-2826, Compound 83] | -0.56 °C
57 | C[C@@H](O)c1cc(C(F)(F)F)cc(C(F)(F)F)c1 [Prestw-Frag-2849, Compound 236] | -0.34 °C
58 | Clc1cccc(N2CCNCC2)c1Cl [Prestw-Frag-2853, Compound 42] | -1.63 °C
59 | O=C1CCc2ccc(O)cc2N1 [Prestw-Frag-2854, Compound 80] | -0.98 °C
60 | c1ccc(C(c2ccccc2)n2ccnc2)cc1 [Prestw-Frag-2868, Compound 465] | -6.29 °C
61 | c1ccc(-c2nn[nH]n2)cc1 [Prestw-Frag-2887, Compound 426] | 0.51 °C
62 | Oc1cc(Cl)c(Cl)cc1Cl [Prestw-Frag-2898, Compound 59] | -0.02 °C
63 | O=C(c1ccccc1)c1ccc(Br)cc1 [Prestw-Frag-2912, Compound 22] | -1.94 °C
64 | CC(C)(C)OC(=O)/C=C/c1ccccc1 [Prestw-Frag-2947, Compound 382] | -0.17 °C
65 | c1ccc(C2CNCCO2)cc1 (stereo not drawn) [Prestw-Frag-2958, Compound 322] | -0.55 °C
66 | COc1ccc(CC(=O)O)cc1 [Prestw-Frag-2960, Compound 158] | 0.16 °C

Row | SMILES | Bmal1(PASB) dTmB
67 | Nc1nc2c(s1)CCCC2 [Prestw-Frag-2972, Compound 480] | -5.59 °C
68 | CCOc1ccccc1OCC1CNCCO1 (stereo not drawn) [Prestw-Frag-2992, Compound 332] | -0.48 °C
69 | CCOc1ccccc1O [Prestw-Frag-2995, Compound 314] | -0.47 °C
70 | c1ccc(-n2ccc3ccccc32)cc1 [Prestw-Frag-3011, Compound 447] | -0.07 °C
71 | CNS(=O)(=O)Cc1ccc2[nH]cc(CCN)c2c1 [Prestw-Frag-3017, Compound 50] | 0.72 °C
72 | c1ccc2nccnc2c1 [Prestw-Frag-3033, Compound 315] | 0.23 °C
73 | O=C1c2nccnc2C(O)N1c1ccc(Cl)cn1 (stereo not drawn) [Prestw-Frag-3046, Compound 93] | -0.98 °C
74 | Cc1ccc(N)c(C#N)c1 [Prestw-Frag-3060, Compound 394] | -0.18 °C
75 | OCCc1ccc(Cl)cc1 [Prestw-Frag-3062, Compound 418] | 0.02 °C
76 | O=C1c2ccc(Cl)cc2CCc2cccnc21 [Prestw-Frag-3073, Compound 431] | -4.79 °C
77 | CCN(CC)C(=O)/C=C/c1ccccc1 [Prestw-Frag-3088, Compound 429] | -1.63 °C
78 | O=C(O)/C=C/c1cnc[nH]1 [Prestw-Frag-3090, Compound 19] | -1.08 °C
79 | OCc1ccc(F)cc1F [Prestw-Frag-3100, Compound 349] | 0.05 °C
80 | OCCn1cncn1 [Prestw-Frag-3101, Compound 350] | 0.19 °C
81 | CCCCc1nc(Cl)c(CO)[nH]1 [Prestw-Frag-3114, Compound 336] | 0.07 °C
82 | CCN(CC)CCNC(=O)c1ccc(N)c(Cl)c1 [Prestw-Frag-3120, Compound 278] | -0.15 °C
83 | c1ccc2c(c1)CCCN2 [Prestw-Frag-3137, Compound 43] | 0.06 °C
84 | Fc1cccnc1N1CCCC1 [Prestw-Frag-3150, Compound 24] | -0.14 °C
85 | COc1ccc2c(c1)CCCC2 [Prestw-Frag-3188, Compound 32] | -0.52 °C
86 | Nc1nc(N)nc(-c2ccccc2)n1 [Prestw-Frag-3190, Compound 387] | -0.27 °C
87 | O=C(Cc1ccccc1F)C1CC1 [Prestw-Frag-3198, Compound 60] | -1.49 °C
